Test results from the NIST ThermoML archive (doi:10.1016/j.jct.2008.05.001).
Numbers after ± are expanded uncertainties.

Conditions: 293 K, 101.33 kPa, Pycnometric method

Row | mass density (Liquid) | mass density (Crystal) | Compound
1 | 1140 ± 10 kg/m3 |  | CCC1COC(=O)O1 (configuration not stated) [1,2-butylene carbonate]
2 |  | 1320 ± 10 kg/m3 | O=C1OCCO1 [ethylene carbonate]
